Experiment [1] addresses T1, human AR (androgen receptor) (Homo sapiens, UniProt P10275).
T1 construct: expressed in transfected cells; host or cells: 293 cells (293-AR lysate)
T1 sequence (P10275 1-920): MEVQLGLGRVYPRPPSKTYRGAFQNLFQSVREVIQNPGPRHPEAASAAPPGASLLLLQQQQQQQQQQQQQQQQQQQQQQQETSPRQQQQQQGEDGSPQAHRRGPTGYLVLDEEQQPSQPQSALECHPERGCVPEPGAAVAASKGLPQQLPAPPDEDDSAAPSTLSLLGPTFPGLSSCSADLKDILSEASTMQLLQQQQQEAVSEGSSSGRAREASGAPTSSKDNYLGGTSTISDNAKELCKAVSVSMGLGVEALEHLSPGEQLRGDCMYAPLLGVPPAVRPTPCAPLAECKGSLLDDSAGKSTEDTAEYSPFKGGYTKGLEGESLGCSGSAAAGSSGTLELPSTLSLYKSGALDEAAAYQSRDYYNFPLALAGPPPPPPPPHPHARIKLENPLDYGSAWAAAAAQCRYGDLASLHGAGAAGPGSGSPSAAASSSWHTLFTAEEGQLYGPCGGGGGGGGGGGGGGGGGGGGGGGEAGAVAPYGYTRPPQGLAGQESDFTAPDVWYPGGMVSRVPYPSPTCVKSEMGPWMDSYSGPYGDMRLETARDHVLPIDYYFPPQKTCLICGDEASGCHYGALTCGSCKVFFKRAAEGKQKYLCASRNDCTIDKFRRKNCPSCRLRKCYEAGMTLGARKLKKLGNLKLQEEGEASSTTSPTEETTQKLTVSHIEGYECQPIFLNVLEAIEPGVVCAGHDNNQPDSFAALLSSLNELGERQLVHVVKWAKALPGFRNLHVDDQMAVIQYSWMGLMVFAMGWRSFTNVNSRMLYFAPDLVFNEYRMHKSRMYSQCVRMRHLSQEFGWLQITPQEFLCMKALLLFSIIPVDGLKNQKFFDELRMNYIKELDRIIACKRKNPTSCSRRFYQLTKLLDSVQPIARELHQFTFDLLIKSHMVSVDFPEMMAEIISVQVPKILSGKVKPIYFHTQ
As to the kind of experiment: Steroid hormone nuclear receptor binding assay, AR binding. In short, it runs like this: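 Competition binding with lysates of 293 cells overexpressing human AR, [3H]-methyltrienolone tracer, compounds from about 0.01 nM to 10 μM, overnight at 4 °C; non-specific binding set with 500 nM methyltrienolone. Bound tracer counted by scintillation after charcoal-dextran separation; IC50 converted to Ki by Cheng-Prusoff using Kd from saturation binding.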

Experiment [2] has as its target T2, human androgen receptor (AR) (Homo sapiens, UniProt P10275).
T2 construct: expressed in transfected cells; host or cells: mouse myoblast C2C12 cells, transiently co-transfected
T2 sequence (P10275 1-920): T1 sequence (P10275 1-920)
In words: C2C12 AR/ARE reporter assay. Type of experiment: cell-based. In short, it runs like this: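 Mouse C2C12 myoblasts co-transfected with AR/ARE reporter were plated in charcoal-stripped serum and treated for 48 h with compound from about 0.01 nM to 10 μM. Luciferase activity gave EC50 by 4-parameter logistic fit. Efficacy is expressed as % of maximal stimulation by 10 nM methyltrienolone.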

The mark [3] stands for this setting: C2C12, read-out: C2C12 % Efficacy.
Where [4] appears, read: average of n trials, read-out: AR binding Ki.
Setting [5] is: C2C12 AR/ARE reporter assay, average of n trials, read-out: C2C12 % Efficacy.
The mark [6] stands for this setting: C2C12 AR/ARE reporter assay, average of n trials, read-out: C2C12 EC50.

Like-named read-outs stand apart in the source and are kept apart here.

`CC(C)C(=O)N[C@@H]1CCc2c(c3cc(-c4cccnc4)ccc3n2Cc2cccc(F)c2)C1` [Example 133] returned a Ki in experiment [1] of 4.6 nM. In experiment [2], this compound displayed an EC50 of 7.5 nM. Further, the Emax in experiment [2] (setting [3]) turned out to be 66.4%.
In the case of `CC(C)C(=O)NC1CCc2c(c3cc(-c4ccncc4)ccc3n2Cc2cccc(F)c2)C1` (stereo not drawn) [Example 134], in experiment [1] (setting [4]), the Ki stood at 380 nM. Further, the Emax in experiment [2] (setting [5]) came to 37.6%. The EC50 in experiment [2] (setting [6]) came out at 365 nM.
The corresponding values for `CC(C)C(=O)NC1CCc2c(c3cc(-c4ccc(F)nc4)ccc3n2Cc2cccc(F)c2)C1` (stereo not drawn) [Example 135] are 20.4 nM, 66% and 62.3 nM.
In turn, `Cc1ncc(-c2ccc3c(c2)c2c(n3Cc3cccc(F)c3)CCC(NC(=O)C(C)C)C2)cn1` (stereo not drawn) [Example 136] gave an inhibition constant (Ki) in experiment [1] of 13.8 nM. In experiment [2], a half-maximal effect (EC50) was put at 0.7 nM. In addition, in experiment [2] (setting [3]), the Emax is 90.4%.
Taken in the same sequence, the figures for `CC(C)C(=O)NC1CCc2c(c3cc(-c4cncnc4)ccc3n2Cc2cccc(F)c2)C1` (stereo not drawn) [Example 137] were 16.2 nM, 17.5 nM and 79.4%.
As for `CC(C)C(=O)NC1CCc2c(c3cc(-c4cccnn4)ccc3n2Cc2cccc(F)c2)C1` (stereo not drawn) [Example 138], in experiment [1] (setting [4]), the Ki was found to be 47.3 nM. Besides, the Emax in experiment [2] (setting [5]) was found to be 86.8%. For the same compound, the EC50 in experiment [2] (setting [6]) was found to be 31.1 nM.
Regarding `Cc1ccc(-c2ccc3c(c2)c2c(n3Cc3cccc(F)c3)CCC(NC(=O)C(C)C)C2)nn1` (stereo not drawn) [Example 139, N-[9-(3-Fluoro-benzyl)-6-(6-methyl-pyridazin-3-yl)-2,3,4,9-tetrahydro-1H-carbazol-3-yl]-isobutyramide], the Ki in experiment [1] (setting [4]) was 34.9 nM. Also, in experiment [2] (setting [5]), the Emax was 96.9%. Moreover, the EC50 in experiment [2] (setting [6]) came to 19.4 nM.
In experiment [1], `CC(C)C(=O)NC1CCc2c(c3cc(-c4cnc(N)s4)ccc3n2Cc2cccc(F)c2)C1` (stereo not drawn) [Example 140] registered a Ki of 29 nM. In experiment [2], this compound displayed an EC50 of 44 nM. For the same compound, the Emax in experiment [2] (setting [3]) worked out at 74.6%.
The compound `CC(C)C(=O)N[C@@H]1CCc2c(c3cc(-c4cnc(N)s4)ccc3n2Cc2cccc(F)c2)C1` [Example 141] had a Ki in experiment [1] of 10 nM. A half-maximal effect in experiment [2] (EC50) was put at 41 nM. Further, in experiment [2] (setting [3]), the Emax worked out at 102%.
As to `CC(C)C(=O)NC1CCc2c(c3cc(-c4ccc(N)nc4)ccc3n2Cc2cccc(F)c2)C1` (stereo not drawn) [Example 142], the Ki in experiment [1] (setting [4]) worked out at 31.8 nM. Moreover, in experiment [2] (setting [5]), the Emax turned out to be 61.8%. For the same compound, the EC50 in experiment [2] (setting [6]) worked out at 23.7 nM.
In turn, `COc1ccc2c(c1)c1c(n2Cc2ccccn2)CCC(NC(=O)C(C)C)C1` (stereo not drawn) [Example 143, N-(6-methoxy-9-pyridin-2-ylmethyl-2,3,4,9-tetrahydro-1H-carbazol-3-yl)-isobutyramide] displayed a Ki in experiment [1] of 362 nM. Besides, in experiment [2], it took 351 nM to reach a half-maximal effect (EC50). Further, the Emax in experiment [2] (setting [3]) came to 80.3%.
The corresponding values for `COc1ccc2c(c1)c1c(n2Cc2cccnc2)CCC(NC(=O)C(C)C)C1` (stereo not drawn) [Example 144] are 737 nM, 275 nM and 41.4%.
The corresponding values for `COc1ccc2c(c1)c1c(n2Cc2ccncc2)CCC(NC(=O)C(C)C)C1` (stereo not drawn) [Example 145] are 1400 nM, 2050 nM and 46.6%.
In the case of `CC(C)C(=O)NC1CCc2c(c3cc(C#N)ccc3n2Cc2ccccn2)C1` (stereo not drawn) [Example 146], the Ki in experiment [1] came to 12.7 nM. Further, the midpoint of the response in experiment [2], the EC50, lay at 15.5 nM. In addition, the Emax in experiment [2] (setting [3]) stood at 86.8%.
Taken in the same sequence, the figures for `CC(C)C(=O)NC1CCc2c(c3cc(C#N)ccc3n2Cc2cscn2)C1` (stereo not drawn) [Example 147, N-(6-Cyano-9-thiazol-4-ylmethyl-2,3,4,9-tetrahydro-1H-carbazol-3-yl)-isobutyramide] were 29.2 nM, 79.7 nM and 102%.
Turning to `CC(C)C(=O)NC1CCc2c(c3cc(C#N)ccc3n2Cc2ccc(Cl)s2)C1` (stereo not drawn) [Example 148, N-[9-(5-Chloro-thiophen-2-ylmethyl)-6-cyano-2,3,4,9-tetrahydro-1H-carbazol-3-yl]-isobutyramide], the Ki in experiment [1] (setting [4]) was 7.3 nM. Further, the Emax in experiment [2] (setting [5]) turned out to be 86.7%. In experiment [2] (setting [6]), the EC50 turned out to be 23.8 nM.
Taken in the same sequence, the figures for `CC(C)C(=O)NC1CCc2c(c3cc(C#N)ccc3n2Cc2nccs2)C1` (stereo not drawn) [Example 149, N-(6-Cyano-9-thiazol-2-ylmethyl-2,3,4,9-tetrahydro-1H-carbazol-3-yl)-isobutyramide] were 18 nM, 91.4% and 17.6 nM.
As to `Cc1nc(Cn2c3c(c4cc(C#N)ccc42)CC(NC(=O)C(C)C)CC3)cs1` (stereo not drawn) [Example 150, N-[6-Cyano-9-(2-methyl-thiazol-4-ylmethyl)-2,3,4,9-tetrahydro-1H-carbazol-3-yl]-isobutyramide], in experiment [1], the affinity corresponds to a Ki of 19.6 nM. Besides, in experiment [2], the EC50 is 98.8 nM. Further, the Emax in experiment [2] (setting [3]) was 91.3%.
The compound `Cc1nc(Cn2c3c(c4cc(C#N)ccc42)C[C@H](NC(=O)C(C)C)CC3)cs1` [Example 151, (R)-N-[6-cyano-9-(2-methyl-thiazol-4-ylmethyl)-2,3,4,9-tetrahydro-1H-carbazol-3-yl]-isobutyramide] came in with a Ki in experiment [1] of 12.4 nM. This compound also gave an EC50 in experiment [2] of 30.4 nM. In addition, the Emax in experiment [2] (setting [3]) is 85.6%.
The corresponding values for `Cc1nc(Cn2c3c(c4cc(C#N)ccc42)C[C@@H](NC(=O)C(C)C)CC3)cs1` [Example 152, (S)-N-[6-cyano-9-(2-methyl-thiazol-4-ylmethyl)-2,3,4,9-tetrahydro-1H-carbazol-3-yl]-isobutyramide] are 208 nM, 409 nM and 61.1%.
The corresponding values for `CC(C)C(=O)NC1CCc2c(c3cc(C#N)ccc3n2Cc2csc(Cl)n2)C1` (stereo not drawn) [Example 153, N-[9-(2-Chloro-thiazol-4-ylmethyl)-6-cyano-2,3,4,9-tetrahydro-1H-carbazol-3-yl]-isobutyramide] are 7.8 nM, 19.3 nM and 93.3%.
In turn, `CC(C)C(=O)N[C@@H]1CCc2c(c3cc(C#N)ccc3n2Cc2csc(Cl)n2)C1` [Example 154, (R)-N-[9-(2-Chloro-thiazol-4-ylmethyl)-6-cyano-2,3,4,9-tetrahydro-1H-carbazol-3-yl]-isobutyramide] came in with a Ki in experiment [1] of 2.2 nM. This compound also registered an EC50 in experiment [2] of 4.4 nM. Also, in experiment [2] (setting [3]), the Emax was found to be 119%.
Turning to `CC(C)C(=O)NC1CCc2c(c3cc(C#N)ccc3n2Cc2cnc(Cl)s2)C1` (stereo not drawn) [Example 155, N-[9-(2-Chloro-thiazol-5-ylmethyl)-6-cyano-2,3,4,9-tetrahydro-1H-carbazol-3-yl]-isobutyramide], in experiment [1], the inhibition constant (Ki) was 13.5 nM. This compound registered an EC50 in experiment [2] of 102 nM. Moreover, in experiment [2] (setting [3]), the Emax is 54.8%.
The corresponding values for `Cc1csc(Cn2c3c(c4cc(C#N)ccc42)C[C@H](NC(=O)C(C)C)CC3)n1` [Example 156, (R)-N-[6-Cyano-9-(4-methyl-thiazol-2-ylmethyl)-2,3,4,9-tetrahydro-1H-carbazol-3-yl]-isobutyramide] are 10.8 nM, 30.5 nM and 79.4%.
For `CC(C)C(=O)NC1CCc2c(c3cc(C#N)ccc3n2Cc2ccsc2)C1` (stereo not drawn) [Example 157, N-(6-Cyano-9-thiophen-3-ylmethyl-2,3,4,9-tetrahydro-1H-carbazol-3-yl)-isobutyramide], the Ki in experiment [1] (setting [4]) is 5.2 nM. Further, the Emax in experiment [2] (setting [5]) stood at 72.3%. Besides, the EC50 in experiment [2] (setting [6]) was 3 nM.
`CC(C)C(=O)NC1CCc2c(c3cc(C#N)ccc3n2Cc2cccs2)C1` (stereo not drawn) [Example 158, N-(6-Cyano-9-thiophen-2-ylmethyl-2,3,4,9-tetrahydro-1H-carbazol-3-yl)-isobutyramide]: in experiment [1], the affinity corresponds to a Ki of 3.1 nM. In experiment [2], this compound displayed an EC50 of 4.5 nM. In addition, the Emax in experiment [2] (setting [3]) came to 124%.
Taken in the same sequence, the figures for `CC(C)C(=O)NC1CCc2c(c3cc(C#N)ccc3n2Cc2cncs2)C1` (stereo not drawn) [Example 159, N-(6-Cyano-9-thiazol-5-ylmethyl-2,3,4,9-tetrahydro-1H-carbazol-3-yl)-isobutyramide] were 34.4 nM, 35.8 nM and 80.9%.

Values taken from US7935722B2 (Eli Lilly and Company, priority 2005, dated 2011).
